# Patent publication US8809270B2, “Method for reducing cardiovascular morbidity and mortality in prediaetic patients and patients with type 2 diabetes” (priority 2003, dated 2014)
# How the values were obtained:
# [1] = test system: patients with various levels of fasting hypertriglyceridemia; assay: Two multicenter placebo-controlled AMARYL registration studies: lipid data; assay type: in vivo, human; parameters: Triglycerides % reduction from baseline / Non-HDL Cholesterol Total % reduction from baseline: concentration or dose not given beside the values; Triglycerides Baseline / Triglycerides Endpoint: unit not given beside the values
# Excerpt: There is evidence from the literature that use of sulfonylurea (SU) as initial drug treatment of the type 2 patient with DDL exerts a weaker effect on reduction of hypertriglyceridemia, or on increasing HDL-C, than is seen with insulin, and/or that the effects are less durable. In order to compare the effects of Lantus LANTUS (insulin glargine) on fasting TG and non-HDL-C levels with oral agents from the sulfonylurea class, the glimepiride (Amaryl® AMARYL) database at Aventis was examined.
# [2] = test system: diabetic patients hospitalized with acute MI; settings: IV insulin-glucose infusion in-hospital followed by intensive chronic outpatient insulin, versus standard treatment; cited from earlier work
# [3] = after injection; cited from earlier work
# IGT = settings: statistically significant; cited from earlier work
# [4] = test system: type 2 diabetic patients already treated with other oral antidiabetic drugs; assay: Study 4014: lipid data, LANTUS versus rosiglitazone; assay type: in vivo, human; parameters: Triglycerides % reduction from baseline / Triglycerides % reduction from baseline, LANTUS-AVANDIA / Non-HDL Cholesterol Total % reduction from baseline: concentration or dose not given beside the values; Triglycerides Baseline / Triglycerides Endpoint: unit not given beside the values
# abnormalities of DDL = settings: in vivo; cited from earlier work
compound,measurement,setting,value
"CCC1=C(C)CN(C(=O)NCCc2ccc(S(=O)(=O)NC(=O)N[C@H]3CC[C@H](C)CC3)cc2)C1=O [AMARYL, glimepiride]",HDL Baseline,[1]; TG baseline range 200-500,38
same,HDL Endpoint,[1]; TG baseline range 200-500,39
same,Non-HDL Cholesterol Total % reduction from baseline,[1]; TG baseline range 200-500,3%
same,Non-HDL Cholesterol Total Baseline,[1]; TG baseline range 200-500,197
same,Non-HDL Cholesterol Total Endpoint,[1]; TG baseline range 200-500,191
same,Triglycerides % reduction from baseline,[1]; TG baseline range 200-500,12%
same,Triglycerides Baseline,[1]; TG baseline range 200-500,299
same,Triglycerides Endpoint,[1]; TG baseline range 200-500,265
same,HDL Baseline,[1]; TG baseline range 300-500,36
same,HDL Endpoint,[1]; TG baseline range 300-500,37
same,Non-HDL Cholesterol Total % reduction from baseline,[1]; TG baseline range 300-500,3%
same,Non-HDL Cholesterol Total Baseline,[1]; TG baseline range 300-500,203
same,Non-HDL Cholesterol Total Endpoint,[1]; TG baseline range 300-500,198
same,Triglycerides % reduction from baseline,[1]; TG baseline range 300-500,18%
same,Triglycerides Baseline,[1]; TG baseline range 300-500,390
same,Triglycerides Endpoint,[1]; TG baseline range 300-500,321
same,HDL Baseline,[1]; TG baseline range 300-1000,36
same,HDL Endpoint,[1]; TG baseline range 300-1000,37
same,Non-HDL Cholesterol Total % reduction from baseline,[1]; TG baseline range 300-1000,5%
same,Non-HDL Cholesterol Total Baseline,[1]; TG baseline range 300-1000,209
same,Non-HDL Cholesterol Total Endpoint,[1]; TG baseline range 300-1000,198
same,Triglycerides % reduction from baseline,[1]; TG baseline range 300-1000,23%
same,Triglycerides Baseline,[1]; TG baseline range 300-1000,459
same,Triglycerides Endpoint,[1]; TG baseline range 300-1000,350
same,HDL Baseline,[1]; TG baseline range 500-1000,37
same,HDL Endpoint,[1]; TG baseline range 500-1000,39
same,Non-HDL Cholesterol Total % reduction from baseline,[1]; TG baseline range 500-1000,10%
same,Non-HDL Cholesterol Total Baseline,[1]; TG baseline range 500-1000,224
same,Non-HDL Cholesterol Total Endpoint,[1]; TG baseline range 500-1000,200
same,Triglycerides % reduction from baseline,[1]; TG baseline range 500-1000,33%
same,Triglycerides Baseline,[1]; TG baseline range 500-1000,662
same,Triglycerides Endpoint,[1]; TG baseline range 500-1000,445
same,LDL Baseline,[1]; TG baseline range All,142
same,LDL Endpoint,[1]; TG baseline range All,140
insulin: IV insulin-glucose infusion followed by intensive chronic outpatient treatment with insulin (DIGAMI study),reduction of all-cause mortality,[2],28%
NPH insulin: a moderate- to long-acting insulin with a pronounced peak in plasma activity,time of pronounced peak in plasma activity / peak effect after injection,[3],3 to 6 h
CN(C)C(=N)N=C(N)N [Metformin],reduction in the rate of progression to type 2 DM,IGT,31%
"CN(CCOc1ccc(CC2SC(=O)NC2=O)cc1)c1ccccn1 (stereo not shown) [AVANDIA, rosiglitazone]",HDL Baseline,[4]; TG baseline range 200-500,38
same,HDL Endpoint,[4]; TG baseline range 200-500,40
same,LDL Baseline,[4]; TG baseline range 200-500,99
same,LDL Endpoint,[4]; TG baseline range 200-500,129
same,Non-HDL Cholesterol Total Endpoint,[4]; TG baseline range 200-500,59
same,Triglycerides % reduction from baseline,[4]; TG baseline range 200-500,0.1%
same,Triglycerides Baseline,[4]; TG baseline range 200-500,294
same,Triglycerides Endpoint,[4]; TG baseline range 200-500,291
same,HDL Baseline,[4]; TG baseline range 300-500,38
same,HDL Endpoint,[4]; TG baseline range 300-500,41
same,Non-HDL Cholesterol Total % reduction from baseline,[4]; TG baseline range 300-500,−17%
same,Non-HDL Cholesterol Total Baseline,[4]; TG baseline range 300-500,177
same,Non-HDL Cholesterol Total Endpoint,[4]; TG baseline range 300-500,207
same,Triglycerides % reduction from baseline,[4]; TG baseline range 300-500,9%
same,Triglycerides Baseline,[4]; TG baseline range 300-500,376
same,Triglycerides Endpoint,[4]; TG baseline range 300-500,341
same,HDL Baseline,[4]; TG baseline range 500-1000,39
same,HDL Endpoint,[4]; TG baseline range 500-1000,38
same,Non-HDL Cholesterol Total Baseline,[4]; TG baseline range 500-1000,231
same,Non-HDL Cholesterol Total Endpoint,[4]; TG baseline range 500-1000,261
same,Triglycerides Baseline,[4]; TG baseline range 500-1000,572
same,Triglycerides Endpoint,[4]; TG baseline range 500-1000,649
same,effect on DDL parameters compared with LANTUS,[4]; in vivo,significantly inferior
same,effects on the abnormalities of DDL,abnormalities of DDL,almost no effect
